Source: patent publication US7166584B1, “Cholesterol transport gene” (Wisconsin Alumni Research Foundation, priority 1999, dated 2007)

Legend:
ABC1 [1] = target: T1, ABC1 (Mus musculus, UniProt P41233); design: host or cells: frog oocytes; conditions: frog oocytes induced to express ABC1; Becq et al. 1997; cited from earlier work
Target sequence in this assay (P41233 61-2261 limits assumed): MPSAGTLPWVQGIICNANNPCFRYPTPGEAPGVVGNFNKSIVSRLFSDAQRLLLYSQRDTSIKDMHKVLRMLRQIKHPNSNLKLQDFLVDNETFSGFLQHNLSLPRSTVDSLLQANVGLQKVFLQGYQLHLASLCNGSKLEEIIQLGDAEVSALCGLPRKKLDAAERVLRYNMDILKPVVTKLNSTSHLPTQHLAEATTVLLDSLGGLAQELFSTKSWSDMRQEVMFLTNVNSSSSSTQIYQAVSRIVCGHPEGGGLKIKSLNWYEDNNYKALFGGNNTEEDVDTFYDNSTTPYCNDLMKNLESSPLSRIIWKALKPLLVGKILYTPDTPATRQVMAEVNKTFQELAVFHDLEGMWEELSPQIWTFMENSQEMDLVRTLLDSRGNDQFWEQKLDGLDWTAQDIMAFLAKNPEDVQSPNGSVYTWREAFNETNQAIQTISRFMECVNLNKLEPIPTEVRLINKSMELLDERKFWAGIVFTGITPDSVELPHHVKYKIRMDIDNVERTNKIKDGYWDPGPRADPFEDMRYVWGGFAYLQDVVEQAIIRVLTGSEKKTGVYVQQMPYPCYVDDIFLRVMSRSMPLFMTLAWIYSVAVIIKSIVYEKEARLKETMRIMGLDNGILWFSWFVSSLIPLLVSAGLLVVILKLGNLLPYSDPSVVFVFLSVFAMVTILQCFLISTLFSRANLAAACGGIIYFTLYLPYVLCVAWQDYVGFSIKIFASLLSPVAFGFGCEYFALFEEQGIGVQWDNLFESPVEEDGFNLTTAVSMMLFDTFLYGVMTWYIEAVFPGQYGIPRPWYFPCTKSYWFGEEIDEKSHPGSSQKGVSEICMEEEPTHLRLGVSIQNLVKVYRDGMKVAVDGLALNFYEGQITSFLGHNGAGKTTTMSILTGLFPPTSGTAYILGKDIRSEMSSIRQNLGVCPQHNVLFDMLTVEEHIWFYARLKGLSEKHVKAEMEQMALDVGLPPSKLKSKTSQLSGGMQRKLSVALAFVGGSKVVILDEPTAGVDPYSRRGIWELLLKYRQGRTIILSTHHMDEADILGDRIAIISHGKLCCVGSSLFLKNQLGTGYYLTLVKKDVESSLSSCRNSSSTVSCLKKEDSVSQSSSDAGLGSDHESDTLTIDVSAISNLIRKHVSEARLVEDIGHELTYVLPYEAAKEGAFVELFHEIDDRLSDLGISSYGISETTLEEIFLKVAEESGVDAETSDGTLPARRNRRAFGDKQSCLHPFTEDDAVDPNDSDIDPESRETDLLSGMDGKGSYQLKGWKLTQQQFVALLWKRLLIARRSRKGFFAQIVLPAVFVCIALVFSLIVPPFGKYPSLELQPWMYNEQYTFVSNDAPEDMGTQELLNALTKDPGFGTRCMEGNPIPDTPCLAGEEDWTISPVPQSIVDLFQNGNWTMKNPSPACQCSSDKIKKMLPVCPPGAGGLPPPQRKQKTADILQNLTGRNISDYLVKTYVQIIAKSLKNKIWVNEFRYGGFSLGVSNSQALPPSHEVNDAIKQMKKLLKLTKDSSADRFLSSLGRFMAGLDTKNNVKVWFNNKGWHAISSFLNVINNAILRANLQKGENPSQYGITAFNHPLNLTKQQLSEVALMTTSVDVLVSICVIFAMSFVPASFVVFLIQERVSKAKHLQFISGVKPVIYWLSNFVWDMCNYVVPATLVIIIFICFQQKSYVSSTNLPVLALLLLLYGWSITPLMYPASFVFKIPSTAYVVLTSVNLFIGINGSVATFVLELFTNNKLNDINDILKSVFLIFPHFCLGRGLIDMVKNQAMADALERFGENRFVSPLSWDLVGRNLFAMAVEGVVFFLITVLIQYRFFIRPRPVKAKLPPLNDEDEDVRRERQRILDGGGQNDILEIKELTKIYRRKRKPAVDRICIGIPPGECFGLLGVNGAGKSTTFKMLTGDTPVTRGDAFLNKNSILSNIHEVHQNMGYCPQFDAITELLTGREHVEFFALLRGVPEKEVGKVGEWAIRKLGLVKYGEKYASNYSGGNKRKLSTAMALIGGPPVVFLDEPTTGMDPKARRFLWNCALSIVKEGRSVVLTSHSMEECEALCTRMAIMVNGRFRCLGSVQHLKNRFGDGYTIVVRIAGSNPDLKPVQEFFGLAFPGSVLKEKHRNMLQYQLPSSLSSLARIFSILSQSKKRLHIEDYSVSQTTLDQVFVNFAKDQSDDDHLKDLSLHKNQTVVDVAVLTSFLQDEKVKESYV

ABC1 [2] = target: T1, ABC1; assay: Cholesterol efflux from 3H-cholesterol-labeled J774 macrophages to apolipoprotein-A1; type: cell-based; design: Mouse macrophages (J774) were labeled with ^3H-cholesterol; endogenous in cells; host or cells: J774 mouse macrophages; conditions: 20 μg/ml human apolipoprotein-A1, indicated concentrations, 24 hours, data only in FIG. 4
Description: A cholesterol efflux assay measures the ability of cells to transfer cholesterol to an extracellular acceptor molecule and is dependent on ABC1 function. A standard cholesterol efflux assay is set out in Marcil et al., Arterioscler. Thromb. Vasc. Biol. 19:159–169, 1999, incorporated by reference herein for all purposes. Prior to this invention, this assay has not been used to identify compounds useful for reducing cholesterol transport from the gut to the blood or lymph, or for reducing LDL or serum cholesterol levels.
In this procedure, cells are loaded with radiolabeled cholesterol by any of several biochemical pathways. Cholesterol efflux of cells is measured after incubation for various times (typically 0 to 24 hours) in the presence of HDL3 or purified ApoAI. Cholesterol efflux is determined as the percentage of total cholesterol in the culture medium after various times of incubation. Increased ABC1 expression levels and/or biological activity are associated with increased efflux while decreased levels of ABC1 expression and/or biological activity are associated with decreased cholesterol efflux.
ABC1 activity can be inhibited genetically or chemically. […] After 24 hours, the medium was collected, centrifuged, and an aliquot collected for radioactivity determination by liquid scintillation counting. […]
Target sequence in this assay (P41233 whole entry): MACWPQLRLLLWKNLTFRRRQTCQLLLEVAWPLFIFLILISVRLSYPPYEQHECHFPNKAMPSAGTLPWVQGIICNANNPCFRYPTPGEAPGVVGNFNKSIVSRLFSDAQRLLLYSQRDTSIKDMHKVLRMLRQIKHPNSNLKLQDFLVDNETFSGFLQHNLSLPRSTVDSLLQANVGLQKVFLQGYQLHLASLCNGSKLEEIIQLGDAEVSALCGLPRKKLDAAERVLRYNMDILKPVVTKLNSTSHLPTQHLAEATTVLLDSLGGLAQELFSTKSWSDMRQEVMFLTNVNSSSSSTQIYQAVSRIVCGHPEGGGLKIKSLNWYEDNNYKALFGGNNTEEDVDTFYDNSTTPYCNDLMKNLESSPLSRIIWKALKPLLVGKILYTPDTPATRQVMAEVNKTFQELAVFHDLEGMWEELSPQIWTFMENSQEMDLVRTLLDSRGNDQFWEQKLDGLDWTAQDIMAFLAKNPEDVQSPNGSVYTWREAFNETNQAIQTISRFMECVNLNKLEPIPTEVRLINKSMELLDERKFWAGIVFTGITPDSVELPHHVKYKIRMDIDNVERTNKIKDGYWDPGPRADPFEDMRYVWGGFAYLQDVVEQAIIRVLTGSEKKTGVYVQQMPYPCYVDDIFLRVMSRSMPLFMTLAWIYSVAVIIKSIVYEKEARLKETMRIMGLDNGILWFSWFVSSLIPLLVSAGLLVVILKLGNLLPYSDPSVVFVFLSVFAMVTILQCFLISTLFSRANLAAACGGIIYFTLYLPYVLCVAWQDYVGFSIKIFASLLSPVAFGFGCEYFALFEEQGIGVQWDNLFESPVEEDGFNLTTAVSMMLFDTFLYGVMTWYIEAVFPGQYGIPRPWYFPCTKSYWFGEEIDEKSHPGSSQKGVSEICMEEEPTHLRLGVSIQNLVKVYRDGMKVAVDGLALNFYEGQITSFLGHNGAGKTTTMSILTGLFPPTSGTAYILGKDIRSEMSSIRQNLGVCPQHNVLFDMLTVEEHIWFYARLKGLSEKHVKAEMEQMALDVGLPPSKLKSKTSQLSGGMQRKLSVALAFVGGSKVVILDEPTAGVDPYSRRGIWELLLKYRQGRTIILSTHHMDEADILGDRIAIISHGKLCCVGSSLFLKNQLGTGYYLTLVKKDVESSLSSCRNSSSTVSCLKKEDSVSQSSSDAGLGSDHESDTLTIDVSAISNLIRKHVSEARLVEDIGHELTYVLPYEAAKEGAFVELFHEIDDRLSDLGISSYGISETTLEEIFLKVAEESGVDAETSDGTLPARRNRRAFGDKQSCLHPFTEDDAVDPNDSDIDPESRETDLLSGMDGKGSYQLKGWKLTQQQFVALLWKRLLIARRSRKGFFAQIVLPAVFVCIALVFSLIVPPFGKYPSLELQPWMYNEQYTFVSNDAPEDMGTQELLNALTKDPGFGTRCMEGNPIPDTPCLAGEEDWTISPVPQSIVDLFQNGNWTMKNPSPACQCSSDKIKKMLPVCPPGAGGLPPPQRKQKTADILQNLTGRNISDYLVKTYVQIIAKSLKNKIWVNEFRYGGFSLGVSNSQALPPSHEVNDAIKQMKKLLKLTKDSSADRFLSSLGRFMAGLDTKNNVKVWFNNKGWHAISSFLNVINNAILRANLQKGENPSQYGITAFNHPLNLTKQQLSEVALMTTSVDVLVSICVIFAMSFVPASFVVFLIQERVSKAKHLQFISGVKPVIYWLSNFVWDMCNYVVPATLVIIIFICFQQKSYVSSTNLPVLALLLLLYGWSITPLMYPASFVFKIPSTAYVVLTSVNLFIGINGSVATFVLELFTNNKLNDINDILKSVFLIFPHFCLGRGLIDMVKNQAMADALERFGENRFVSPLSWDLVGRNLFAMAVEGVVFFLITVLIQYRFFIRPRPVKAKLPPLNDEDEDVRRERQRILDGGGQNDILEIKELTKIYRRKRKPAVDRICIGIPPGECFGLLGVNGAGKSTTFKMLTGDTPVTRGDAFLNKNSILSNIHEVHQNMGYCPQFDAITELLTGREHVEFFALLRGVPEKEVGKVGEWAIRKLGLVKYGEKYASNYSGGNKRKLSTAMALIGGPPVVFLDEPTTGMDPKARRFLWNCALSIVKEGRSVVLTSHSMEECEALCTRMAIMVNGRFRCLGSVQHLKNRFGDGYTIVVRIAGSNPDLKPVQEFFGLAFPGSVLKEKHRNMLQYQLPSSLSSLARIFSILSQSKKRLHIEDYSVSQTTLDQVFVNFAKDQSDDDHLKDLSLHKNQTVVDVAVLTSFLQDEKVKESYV

Inhibition of ABC1 activity (cholesterol efflux) (ABC1 [2]): inhibit ABC1 activity
SMILES: COc1ccc(Cl)cc1C(=O)NCCc1ccc(S(=O)(=O)NC(=O)NC2CCCCC2)cc1 [Glyburide]
Inhibition of iodide transport (ABC1 [1]): inhibit iodide transport
